How the values were obtained:
human PD-L1 = human PD-L1 (Homo sapiens (Human), UniProt Q9NZQ7); assay: T cell activation luciferase reporter cell culture system (T Cell Activation Assay); type: cell-based; conditions: luciferase reporter assay; PD-L1 aAPC/CHO-K1 cells with PD-1 effector Jurkat T cells
[1] = biological target: PD-L1 His protein / PD-1 Fc protein (Homo sapiens (Human), UniProt Q9NZQ7); assay: HTRF Assay (PD-1/PD-L1 interaction); type: binding; conditions: PD-L1 His 6 nM, PD-1 Fc 6 nM
Sequence of PD-L1 His protein / PD-1 Fc protein (Q9NZQ7 19-238): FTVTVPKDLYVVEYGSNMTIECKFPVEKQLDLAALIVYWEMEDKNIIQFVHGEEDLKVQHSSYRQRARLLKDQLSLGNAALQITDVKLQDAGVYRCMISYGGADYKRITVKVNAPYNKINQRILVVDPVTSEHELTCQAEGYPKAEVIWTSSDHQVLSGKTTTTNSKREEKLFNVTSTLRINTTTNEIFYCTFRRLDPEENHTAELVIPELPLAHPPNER

Sequence of human PD-L1 (Q9NZQ7 19-290): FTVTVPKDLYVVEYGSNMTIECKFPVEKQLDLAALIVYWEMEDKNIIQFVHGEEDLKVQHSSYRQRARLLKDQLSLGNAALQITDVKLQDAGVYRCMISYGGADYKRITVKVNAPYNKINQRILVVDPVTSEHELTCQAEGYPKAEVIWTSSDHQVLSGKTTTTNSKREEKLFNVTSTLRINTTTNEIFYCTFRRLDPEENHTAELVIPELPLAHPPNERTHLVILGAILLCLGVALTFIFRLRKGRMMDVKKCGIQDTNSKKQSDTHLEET

SMILES | EC50 (human PD-L1) [nM] | IC50 [1] [nM]
COc1cc(-c2nccc(-c3cccc(-c4ccc(CNC[C@@H]5CCC(=O)N5)c(OC)n4)c3Cl)c2Cl)cc(F)c1CN1CC2(CNC(=O)C2)C1 [Compound 145, (S)-2-(4-(3-chloro-4-(2-chloro-3-(6-methoxy-5-((((5-oxopyrrolidin-2-yl)methyl)amino)methyl)pyridin-2-yl)phenyl)pyridin-2-yl)-2-fluoro-6-methoxybenzyl)-2,6-diazaspiro[3.4]octan-7-one] | 17.7 | 2.02
COc1cc(-c2nccc(-c3cccc(-c4ccc(CNC[C@@H]5CCC(=O)N5)c(OC)n4)c3Cl)c2Cl)cc(F)c1CN1CC2(CC(O)C2)C1 [Compound 146, (S)-5-((((6-(2-chloro-3-(3-chloro-2-(3-fluoro-4-((6-hydroxy-2-azaspiro[3.3]heptan-2-yl)methyl)-5-methoxyphenyl)pyridin-4-yl)phenyl)-2-methoxypyridin-3-yl)methyl)amino)methyl)pyrrolidin-2-one] | 61.1 | 0.77
COc1cc(-c2nccc(-c3cccc(-c4ccc(CNC[C@@H]5CCC(=O)N5)c(OC)n4)c3Cl)c2Cl)cc(F)c1CNCCCF [Compound 147, (S)-5-((((6-(2-chloro-3-(3-chloro-2-(3-fluoro-4-(((3-fluoropropyl)amino)methyl)-5-methoxyphenyl)pyridin-4-yl)phenyl)-2-methoxypyridin-3-yl)methyl)amino)methyl)pyrrolidin-2-one] | 42.7 | 1.96
COc1cc(-c2nccc(-c3cccc(-c4ccc(CNC[C@@H]5CCC(=O)N5)c(OC)n4)c3Cl)c2Cl)cc(F)c1CNC1CCN(C(C)=O)CC1 [Compound 148, (S)-5-((((6-(3-(2-(4-(((1-acetylpiperidin-4-yl)amino)methyl)-3-fluoro-5-methoxyphenyl)-3-chloropyridin-4-yl)-2-chlorophenyl)-2-methoxypyridin-3-yl)methyl)amino)methyl)pyrrolidin-2-one] | 19.5 | 1.11
COC(=O)C1(NCc2cc(C(F)(F)F)c(N[C@H]3CCc4c(-c5nccc(-c6ccc(CNC[C@@H]7CCC(=O)N7)c(OC)n6)c5Cl)cccc43)nc2OC)CC1 [Compound 149, methyl 1-(((6-(((S)-4-(3′-chloro-6-methoxy-5-(((((S)-5-oxopyrrolidin-2-yl)methyl)amino)methyl)-[2,4′-bipyridin]-2′-yl)-2,3-dihydro-1H-inden-1-yl)amino)-2-methoxy-5-(trifluoromethyl)pyridin-3-yl)methyl)amino)cyclopropane-1-carboxy late] | ≥ 10000 | 12.7
COc1nc(-c2cccc(-c3ccnc(-c4ccc5nc([C@H]6N[C@@H]7CC[C@H]6C7)[nH]c5c4)c3Cl)c2Cl)ccc1CNC[C@@H]1CCC(=O)N1 [Compound 152, (S)-5-((((6-(3-(2-(2-((1R,3S,4S)-2-azabicyclo[2.2.1]heptan-3-yl)-1H-benzo[d]imidazol-6-yl)-3-chloropyridin-4-yl)-2-chlorophenyl)-2-methoxypyridin-3-yl)methyl)amino)methyl)pyrrolidin-2-one] | ≥ 10000 | 2.57
COc1cc(CNC[C@@H]2CCC(=O)N2)cc(-c2nccc(-c3cccc(-c4ccc(CNC[C@@H]5CCC(=O)N5)c(OC)n4)c3Cl)c2Cl)c1 [Compound 153, (S)-5-((((6-(2-chloro-3-(3-chloro-2-(3-methoxy-5-(((((S)-5-oxopyrrolidin-2-yl)methyl)amino)methyl)phenyl)pyridin-4-yl)phenyl)-2-methoxypyridin-3-yl)methyl)amino)methyl)pyrrolidin-2-one] | 782 | 5.14
COc1cc(CNC2CCN(C(C)=O)CC2)cc(-c2nccc(-c3cccc(-c4ccc(CNC5CCN(C(C)=O)CC5)c(OC)n4)c3Cl)c2Cl)c1 [Compound 154, 1-(4-(((6-(3-(2-(3-(((1-acetylpiperidin-4-yl)amino)methyl)-5-methoxyphenyl)-3-chloropyridin-4-yl)-2-chlorophenyl)-2-methoxypyridin-3-yl)methyl)amino)piperidin-1-yl)ethan-1-one] | ≥ 10000 | 8.73
CNCc1cc(OC)cc(-c2nccc(-c3cccc(-c4ccc(CNC)c(OC)n4)c3Cl)c2Cl)c1 [Compound 155, 1-(6-(2-chloro-3-(3-chloro-2-(3-methoxy-5-((methylamino)methyl)phenyl)pyridin-4-yl)phenyl)-2-methoxypyridin-3-yl)-N-methylmethanamine] | ≥ 10000 | 6.82
COc1cc(CNCCO)cc(-c2nccc(-c3cccc(-c4ccc(CNCCO)c(OC)n4)c3Cl)c2Cl)c1 [Compound 156, 2-(((6-(2-chloro-3-(3-chloro-2-(3-(((2-hydroxyethyl)amino)methyl)-5-methoxyphenyl)pyridin-4-yl)phenyl)-2-methoxypyridin-3-yl)methyl)amino)ethan-1-ol] | ≥ 10000 | 1.18
COc1cc(CNC[C@H](C)O)cc(-c2nccc(-c3cccc(-c4ccc(CNC[C@H](C)O)c(OC)n4)c3Cl)c2Cl)c1 [Compound 157, (S)-1-(((6-(2-chloro-3-(3-chloro-2-(3-((((S)-2-hydroxypropyl)amino)methyl)-5-methoxyphenyl)pyridin-4-yl)phenyl)-2-methoxypyridin-3-yl)methyl)amino)propan-2-ol] | ≥ 10000 | 2.45
COc1nc(-c2cccc(-c3ccnc(-c4ccc5c6c(n(C)c5c4)CCN(CCO)C6)c3Cl)c2Cl)ccc1CNC[C@@H]1CCC(=O)N1 [Compound 158, (S)-5-((((6-(2-chloro-3-(3-chloro-2-(2-(2-hydroxyethyl)-5-methyl-2,3,4,5-tetrahydro-1H-pyrido[4,3-b]indol-7-yl)pyridine-4-yl)phenyl)-2-methoxypyridin-3-yl)methyl)amino)methyl)pyridine1330ne-2-one] | ≥ 10000 | 0.64
CNCc1ccc(-c2cccc(-c3ccnc(-c4ccc5c(c4)CNC5)c3Cl)c2Cl)nc1OC [Compound 159, 1-(6-(2-chloro-3-(3-chloro-2-(isoindolin-5-yl)pyridine-4-yl)phenyl)-2-methoxypyridin-3-yl)-N-methylmethanamine] | ≥ 10000 | 1.34
COc1nc(-c2cccc(-c3ccnc(-c4ccc5c(c4)CNC5)c3Cl)c2Cl)ccc1CNCCO [Compound 160, 2-(((6-(2-chloro-3-(3-chloro-2-(isoindolin-5-yl)pyridine-4-yl)phenyl)-2-methoxypyridin-3-yl)methyl)amino)ethan-1-ol] | 150 | 0.87
COc1nc(-c2cccc(-c3ccnc(-c4ccc5c(c4)CNC5)c3Cl)c2Cl)ccc1CNC[C@H](C)O [Compound 161, (S)-1-(((6-(2-chloro-3-(3-chloro-2-(isoindolin-5-yl)pyridine-4-yl)phenyl)-2-methoxypyridin-3-yl)methyl)amino)propan-2-ol] | 387 | 0.73
COc1nc(-c2cccc(-c3ccnc(-c4ccc5c(c4)CNC5)c3Cl)c2Cl)ccc1CNC1CCN(C(C)=O)CC1 [Compound 162, 1-(4-(((6-(2-chloro-3-(3-chloro-2-(isoindolin-5-yl)pyridine-4-yl)phenyl)-2-methoxypyridin-3-yl)methyl)amino)piperidin-1-yl)ethan-1-one] | 5160 | 0.78
